{
  "source": "ChEMBL document CHEMBL4411274",
  "about": "“Recent advances of tetrazole derivatives as potential anti-tubercular and anti-malarial agents” (Eur J Med Chem, 2019)",
  "key": {"[1]": {"system": "Mycobacterium tuberculosis", "experiment": "Antibacterial activity against Mycobacterium tuberculosis H37Rv after 5 days", "format": "functional", "conditions": "120 h"}, "[2]": {"system": "Mycobacterium tuberculosis", "experiment": "Antibacterial activity against Mycobacterium tuberculosis CNCTC My 331/88", "format": "functional"}, "Mycobacterium kansasii [3]": {"system": "Mycobacterium kansasii", "experiment": "Antibacterial activity against Mycobacterium kansasii CNCTC My 235/80", "format": "functional"}, "Mycobacterium avium [4]": {"system": "Mycobacterium avium", "experiment": "Antibacterial activity against Mycobacterium avium CNCTC My 330/88", "format": "functional"}, "Mycobacterium kansasii [5]": {"system": "Mycobacterium kansasii", "experiment": "Antibacterial activity against Mycobacterium kansasii isolate 6509/96", "format": "functional"}, "Mycobacterium kansasii [6]": {"system": "Mycobacterium kansasii", "experiment": "Potency index, ratio of isoniazid MIC to compound MIC for Mycobacterium kansasii CNCTC My 235/80", "format": "functional"}, "Mycobacterium avium [7]": {"system": "Mycobacterium avium", "experiment": "Potency index, ratio of isoniazid MIC to compound MIC for Mycobacterium avium CNCTC My 330/88", "format": "functional"}, "[8]": {"system": "Mycobacterium tuberculosis", "experiment": "Antibacterial activity against Mycobacterium tuberculosis H37Rv", "format": "functional"}, "[9]": {"system": "Mycobacterium tuberculosis", "experiment": "Antibacterial activity against Mycobacterium tuberculosis H37Rv by MABA", "format": "functional"}, "Plasmodium falciparum [10]": {"system": "Plasmodium falciparum", "experiment": "Antimalarial activity against chloroquine resistant Plasmodium falciparum FcB1R", "format": "functional, organism-based"}, "[11]": {"system": "Mycobacterium tuberculosis", "experiment": "Antibacterial activity against Mycobacterium tuberculosis H37Rv by resazurin dye-based assay", "format": "functional"}, "Plasmodium falciparum [12]": {"system": "Plasmodium falciparum", "experiment": "Antimalarial activity against ring-stage multidrug-resistant Plasmodium falciparum Dd2 preincubated for 6 hrs followed by compound wash and measured after 66 hrs by Giemsa-staining based light microscopic analysis", "format": "functional, organism-based"}, "Plasmodium falciparum [13]": {"system": "Plasmodium falciparum", "experiment": "Antimalarial activity against ring-stage chloroquine-susceptible Plasmodium falciparum 3D7 preincubated for 6 hrs followed by compound wash and measured after 66 hrs by Giemsa-staining based light microscopic analysis", "format": "functional, organism-based"}},
  "data": [
    {"smiles": "Cn1nnnc1SC1=CS(=O)(=O)c2ccccc21", "values": [
      {"measurement": "MIC", "setting": "[1]", "value": 2.6, "unit": "µM"}
    ]},
    {"smiles": "Clc1ccc(-n2nnnc2SCc2ccccc2)cc1Cl", "values": [
      {"measurement": "MIC", "setting": "[2]", "value": "8 to 62.5", "unit": "µg/mL"},
      {"measurement": "MIC", "setting": "Mycobacterium kansasii [3]", "value": "8 to 250", "unit": "µg/mL"},
      {"measurement": "MIC", "setting": "Mycobacterium avium [4]", "value": "8 to 250", "unit": "µg/mL"},
      {"measurement": "MIC", "setting": "Mycobacterium kansasii [5]", "value": "8 to 62.5", "unit": "µg/mL"},
      {"measurement": "Ratio", "setting": "Mycobacterium kansasii [6]", "value": ">4"},
      {"measurement": "Ratio", "setting": "Mycobacterium avium [7]", "value": ">4"}
    ]},
    {"smiles": "CN[C@@H]1[C@H](O[C@H]2[C@H](O[C@H]3[C@H](O)[C@@H](O)[C@H](N=C(N)N)[C@@H](O)[C@@H]3N=C(N)N)O[C@@H](C)[C@]2(O)C=O)O[C@@H](CO)[C@H](O)[C@H]1O", "note": "[STREPTOMYCIN]", "values": [
      {"measurement": "MIC", "setting": "[8]", "value": 4, "unit": "µg/mL"}
    ]},
    {"smiles": "Cc1ccc(-n2c(-c3cc4cc(Cl)ccc4n4nnnc34)nc(-c3ccccc3)c2-c2ccccc2)cc1", "values": [
      {"measurement": "MIC", "setting": "[8]", "value": 25, "unit": "µg/mL"}
    ]},
    {"smiles": "CC[C@@H](CO)NCCN[C@@H](CC)CO", "note": "[ETHAMBUTOL]", "values": [
      {"measurement": "MIC", "setting": "[9]", "value": 1.56, "unit": "µg/mL"},
      {"measurement": "MIC", "setting": "[8]", "value": 2, "unit": "µg/mL"}
    ]},
    {"smiles": "CC1=C(CCc2nnnn2CCCCCC#N)C(=O)c2ccccc2C1=O", "values": [
      {"measurement": "IC50", "setting": "Plasmodium falciparum [10]", "value": "900 to 1400", "unit": "nM"}
    ]},
    {"smiles": "CC1=C(CCc2nnnn2CCCC#N)C(=O)c2ccccc2C1=O", "values": [
      {"measurement": "IC50", "setting": "Plasmodium falciparum [10]", "value": "900 to 1400", "unit": "nM"}
    ]},
    {"smiles": "Cc1ccc2c(c1)cc(C1C3=C(CC(C)(C)CC3=O)N(c3ccc(F)cc3)C3=C1C(=O)CC(C)(C)C3)c1nnnn12", "values": [
      {"measurement": "MIC", "setting": "[8]", "value": 50, "unit": "µg/mL"}
    ]},
    {"smiles": "NNC(=O)c1ccncc1", "note": "[ISONIAZID]", "values": [
      {"measurement": "MIC", "setting": "[8]", "value": 0.2, "unit": "µg/mL"},
      {"measurement": "MIC", "setting": "[11]", "value": 0.063, "unit": "µg/mL"},
      {"measurement": "MIC", "setting": "[2]", "value": 0.5, "unit": "µg/mL"},
      {"measurement": "MIC", "setting": "Mycobacterium kansasii [5]", "value": 4, "unit": "µg/mL"}
    ]},
    {"smiles": "CC1=C(CCc2nnnn2CCCCC#N)C(=O)c2ccccc2C1=O", "values": [
      {"measurement": "IC50", "setting": "Plasmodium falciparum [10]", "value": "900 to 1400", "unit": "nM"}
    ]},
    {"smiles": "CO[C@H]1/C=C/O[C@@]2(C)Oc3c(C)c(O)c4c(O)c(c(/C=N/N5CCN(C)CC5)c(O)c4c3C2=O)NC(=O)/C(C)=C\\C=C\\[C@H](C)[C@H](O)[C@@H](C)[C@@H](O)[C@@H](C)[C@H](OC(C)=O)[C@@H]1C", "note": "[RIFAMPIN]", "values": [
      {"measurement": "MIC", "setting": "[8]", "value": "0.25 to 40", "unit": "µg/mL"},
      {"measurement": "MIC", "setting": "[11]", "value": 0.006, "unit": "µg/mL"}
    ]},
    {"smiles": "c1cnc(-c2nn3nnnc3o2)cn1", "values": [
      {"measurement": "MIC", "setting": "[8]", "value": 50, "unit": "µg/mL"}
    ]},
    {"smiles": "C[C@H]1[C@H](OC(=O)CCC(=O)O)O[C@@H]2O[C@@]3(C)CC[C@H]4[C@H](C)CC[C@@H]1[C@@]24OO3", "note": "[ARTESUNATE]", "values": [
      {"measurement": "IC50", "setting": "Plasmodium falciparum [12]", "value": 4.6, "unit": "nM"},
      {"measurement": "IC50", "setting": "Plasmodium falciparum [13]", "value": 5.1, "unit": "nM"}
    ]}
  ]
}
